Experiment [1] relates to human peripheral blood CD4+ T cells. Put plainly: DQ8 tetramers loaded with insulin B9-23 peptide, facs sorting of CD4+ T cells for TCR alpha chain sequencing. Type of experiment: cell-based. Conditions: control SEQ ID 10 without thioreductase motif. An excerpt: Expression of human DQ8 MHC class II molecule is associated with reactivity to a major epitope of insulin, located in the beta chain of insulin within the amino acid sequence 9-23. Human peripheral blood naïve T cell repertoire frequently contains cells expressing germline encoded alpha chain sequences, called Trav13-1, associated with various beta chain sequences, but which are sufficient as to confer a low affinity reaction with the B9-23 insulin epitope when presented by DQ8.
Peptides encompassing the sequences of the B9-23 epitope with a thioreductase motif and a one amino acid glycine linker are produced, namely […] INS9-23 (SEQ ID 9) and control peptides without thioreductase motif and linker […] INS9-23 (SEQ ID 10)
Tetramers of DQ8 are produced and loaded with each one of peptides of SEQ ID 9 or SEQ ID 10. Loaded tetramers are incubated with human peripheral blood CD4+ T cells. Cells are washed, analysed by facs and sorted out. Cells are then washed from tetramers and used for TCR alpha chain sequencing using corresponding primers.

For experiment [2], the system named is CD4+ T cells from peripheral blood. Put plainly: MHC class II tetramers loaded with influenza hemagglutinin peptide, counting of CD4+ T cells by facs before and after vaccination. It counts as cell-based. To be noted: fluorescence-labeled MHC class II tetramers loaded with peptide; compared with peptide of SEQ ID 4 without thioreductase motif.
The test system of experiment [3] is MOG-specific naïve CD4+ T cells. Put plainly: DRB1*1501 MHC class II tetramers loaded with MOG peptide, detection of naïve CD4+ T cells by facs. Type of experiment: cell-based, human. To be noted: DRB1*1501 tetramers loaded with peptide, 2 h at 37° C, control: same peptide without thioreductase motif (SEQ ID NO:2). Here is the method: Naïve CD4+ T cells are prepared from the peripheral repertoire of DRB1*1501+ subjects susceptible to suffer from multiple sclerosis, using magnetic beads to remove CD4(−) cells and memory cells, as described in the art. Tetramers of DRB1*1501 are made as known in the art (Kasprowicz V et al. (2006) J. Virol. 80, 11209-112017), including a fluorescent label such as Ficoerythrin. A synthetic peptide is produced, which encompasses the corresponding class II-restricted MOG
T cell epitope and a thioreductase motif CGPCSRVVHLYRNGK D [SEQ ID NO: 1], which corresponds to amino acid residues 47-58 of the MOG protein.
Tetramers are loaded with peptide of SEQ ID 1 overnight at room temperature in the appropriate buffer conditions as known in the art. Loaded tetramers are then washed and incubated with naïve CD4+ T cells for 2 h at 37° C. The suspension is then read with a fluorescence-activated cell sorting (facs) system and the proportion of naïve cells specific to the MOG peptide evaluated Control experiments are performed with MHC complex with the same peptide without thioreductase motif. SRVVHLYRNGKD [SEQ ID NO:2].

For experiment [4], the system named is GAD65-specific CD4+ T cells. In words: Sorting of GAD65-specific CD4+ T cells from NOD mouse spleen with peptide-loaded class II tetramers and expansion to cytolytic CD4+ T cells. It counts as cell-based, NOD mice. Here is the method:
NOD (non-obese diabetic) mice spontaneously develop diabetes by progressive destruction of insulin-producing Langerhans islet cells. NOD mice are considered as a representative pre-clinical model of human IDDM. Effector CD4+ T cells against GAD65 are prepared from the spleen of diseased animals by first depleting non-CD4+ cells. CD4+ cells are then incubated with class II tetramers loaded with a GAD65 class II restricted epitope encompassing a thioreductase motif in flanking residues.
The sequence of the peptide is therefore CRLCKVAPVIKARMM (GAD65 524-543) (SEQ ID NO: 7) A peptide of GAD65 without thioreductase motif is prepared for control experiments KVAPVIKARMM (SEQ ID NO: 8).
Cells are then sorted by facs according to their binding of peptide-loaded tetramers. Positive cells are then maintained in culture and stimulated with APC loaded with peptide of SEQ ID 7 to generate cytolytic CD4+ T cells, as described in the WO2008017517 patent application.

For experiment [5], the system named is Dby-specific CD4+ T cells. Put plainly: Depletion of Dby-specific CD4+ T cells with peptide-loaded H-2b class II beads, then male bone marrow grafting in reconstituted RAG2 KO mice. It counts as in vivo, mouse. To be noted: RAG2 KO mice reconstituted with female H-2b lymphocytes depleted on beads coated with class II H-2b molecules loaded with peptide. An excerpt:
In the mouse model, male bone marrow is rejected by syngeneic females due to recognition of H-Y encoded antigens among which the Dby protein plays a major role. A majority of CD4+ T cells recognize an epitope made of residues FNSNRANSS of the murine Dby antigen which is encoded by the […]
A synthetic peptide made of this class II restricted T cell epitope with a thioreductase motif is produced, corresponding to CHGCFNSNRANSS [SEQ ID NO:5] and the corresponding Dby peptide in natural configuration is produced as a control, namely […].
Lymphocytes from the spleen of female H-2b mice are prepared by magnetic bead sorting. The cells are then incubated with a suspension of beads coated with class II H-2b molecules and loaded with peptide of SEQ ID 5 or of SEQ ID 6. Lymphocytes T cells, containing all CD4+ T cells not retained on beads and CD8+ T cells, are used to reconstitute RAG2 KO mice, which are then engrafted by the bone marrow of a male syngeneic donor. RAG2 KO mice have no functional adaptive immune system and are therefore unable to reject the graft. Rejection is thereby depending only of cells present in the passively transferred population.

We go through 5 sequences from patent publication US11226332B2, “Method for the detection, preparation and depletion of CD4+ t lymphocytes” (IMCYSE SA, priority 2013, dated 2022).

“CGHCGSHLVEALYLVCGERG (redox motif + glycine linker+ insulin epitope) [SEQ ID 9]”: the “number of cells obtained by tetramer sorting for TCR sequencing” value in experiment [1] was “obtained in sufficient number as to allow TCR sequencing”.

Take “CGHCKYVKQNTLKHEMAGG (redox motif + influenza hemaglutinin epitope) [SEQ ID 3]”: the “number of CD4+ T cells detected in peripheral blood” value in experiment [2] was “higher number of CD4+ T cells are detected”. CGPCSRVVHLYRNGKD [SEQ ID 1]: the “detection of naïve CD4+ T cells specific to the MOG sequence” value in experiment [3] is reported as “able to detect naïve CD4+ T cells”. For “CRLCKVAPVIKARMM (redox motif + GAD65 epitope) [SEQ ID 7]”, the “yield of GAD65-specific cytolytic CD4+ T cells” value is on record as “higher” in experiment [4] (tetramer sorting compared with the method of WO2008017517 (peptide added to T cells from spleen of NOD mice)) and “significantly increased” in experiment [4] (tetramers loaded with peptide of SEQ ID 7 instead of peptide of SEQ ID 8). For the sequence FNSNRANSS (Dby epitope) [SEQ ID 6], the “graft acceptance (male bone marrow)” value in experiment [5] was “no improvement of graft acceptance”.
